According to patent publication US10450340B2, “3′-deamino-3′-(2″-pyrroline-1″-yl)-5-imino-13-deoxyanthracyclines and methods of preparation” (priority 2017, dated 2019):
Where two headings read alike, the source gives them in different places. Marks after values point to notes of the source that are not given here.

Legend:
GCT histiocytoma cells = test: Antiproliferative activity, resazurin assay, GCT; format: cell-based; details: Homo sapiens, read-out: Drug IC50 Values
Experimental: (§1) The growth inhibitory potency of 2-pyrrolino-5-imino-13-deoxydoxorubicin IV, 5-imino-13-deoxydoxorubicin III, and doxorubicin I against several cancer cell lines was evaluated using the resazurin fluorescence assay. The growth inhibitory potency was measured as the inhibitory concentration of a compound required to inhibit cell growth by 50% (IC50). The cancer cells were seeded into 96-well plates (0.5-1×10^4 cells/well) with appropriate media, incubated with drug for 48 hours, and then treated with resazurin (final concentration, 0.01%), a non-fluorescent blue dye, for 24 hours. The fluorescence (Ex560 nm/Em590 nm) was recorded using a BioTek SynergyHT multiwell plate fluorimeter. Healthy cells metabolize resazurin to resorufin, a fluorescent pink dye. Thus, fluorescence is a proxy for cell viability and used to determine the effect of cytotoxic agents on cell cultures. […] The activity of 2-pyrrolino-5-imino-13-deoxydoxorubicin IV was also greater than that of doxorubicin I, with IC50 values that were, on average, lower than those of doxorubicin I.

MES-SA cells = test: Antiproliferative activity, doxorubicin sensitive uterine fibrosarcoma; format: cell-based; details: Homo sapiens, read-out: Drug IC50 Values
Experimental: as §1
(§2) The compounds were further tested against a uterine fibrosarcoma cell line, MES-SA, sensitive to doxorubicin (compound I), and against a uterine fibrosarcoma cell line MES-SA/MX2 resistant to doxorubicin.

MES-SA/MX2 cells = test: Antiproliferative activity, doxorubicin resistant uterine fibrosarcoma; format: cell-based, human; details: for IC50: Homo sapiens, read-out: Drug IC50 Values; for potency in the resistant fibrosarcoma strain compared to the sensitive strain (times less potent): MES-SA/MX2 versus MES-SA
Experimental: as §1, §2

[1] = system: HeLa cervical adenocarcinoma cells; test: Antiproliferative activity, resazurin assay, HeLa; format: cell-based; details: Homo sapiens, read-out: Drug IC50 Values
Experimental: as §1

human cancer cell lines = test: Antiproliferative activity, average over the five cancer cell lines of Table 1; format: cell-based; details: for times more potent against cancer cells than a normal non-cancer cell line, on average: HADF IC50 / average cancer cell IC50; for IC50: Homo sapiens, read-out: Average Drug IC50 Values
Experimental: as §1
Even more unexpected and not predicted was that the selectivity of compound IV for cancer cells versus normal cells is shown to be 40 times greater compared to compound I (doxorubicin).

[2] = system: T47D breast ductal carcinoma cells; test: Antiproliferative activity, resazurin assay, T47D; format: cell-based; details: Homo sapiens, read-out: Drug IC50 Values
Experimental: as §1

[3] = system: RD rhabdomyosarcoma cells; test: Antiproliferative activity, resazurin assay, RD; format: cell-based; details: Homo sapiens, Rhabdomyosarcoma cell, read-out: Drug IC50 Values
Experimental: as §1

SW-872 liposarcoma cells = test: Antiproliferative activity, resazurin assay, SW-872; format: cell-based; details: Homo sapiens, read-out: Drug IC50 Values
Experimental: as §1

[4] = system: HADF human adult dermal fibroblasts; test: Cytotoxicity against normal cell line, resazurin assay; format: cell-based; details: for IC50: Fibroblast, read-out: Drug IC50 Values
Experimental: as §1
The compounds were also tested against a normal non-cancer cell line, normal human fibroblasts (HADF).

HT1080-luc tumors = test: Primary tumor growth model of sarcoma in SCID mice; format: in vivo; details: for Averge tumor weight / tumor weight reduced / tumor progression by in vivo bioluminescent imaging: day 20; for Averge tumor weight: SCID mice; for tumor weight reduced: 2.4 mg/kg, relative to PBS; for tumor progression by in vivo bioluminescent imaging: relative to PBS-only treatment
Experimental: To assess in vivo drug activity against a primary tumor growth model of sarcoma, an experiment was conducted using commercially available human HT1080 fibrosarcoma cells engineered to express luciferase (HT1080-luc; PerkinElmer). The inhibitory potency of Compound III and Compound IV against HT1080-luc was measured in vitro by the methods described in Example 2. […] HT1080-luc tumors were initiated in 6 week old female SCID mice (Harlan) by orthotopic subcutaneous injection of 1×10^6 cells in each flank. After allowing the tumors to establish for 6 days, mice were randomized to one of three treatment groups and treated three times per week by intraperitoneal injection with compound IV or compound III, 2.4 mg/kg in physiological buffered saline (PBS), or vehicle (PBS). […] At day 20 tumor weight was reduced 53% with compound IV while reduced only 36% with compound III at the same given dose. […] This is in contrast to 2-pyrrolinodoxorubicin which can be lethal at its effective dose range.

[5] = system: HT1080 fibrosarcoma cells; test: cells; format: cell-based; details: for IC50 / IC10: 48 hours; for IC10: concentration inhibiting cell growth by 10%
Experimental: A fibrosarcoma cell line, HT1080, was used to measure the IC50's and IC10's (the inhibitory concentration of a compound required to inhibit cell growth by 10%) of Compound IV and Compound III, as described in Example 2. An IC50 concentration represents a therapeutic amount of compound. […] The cells were passaged and seeded at 5,000 cells/well on 96-well plates and the plates were incubated for 24 hours. After incubation, the media was changed and the IC50's and IC10's of compound IV and compound III were measured after 48 hours of incubation. Then, the IC50's of compound IV in the presence of compound III at an IC10 concentration and of compound III in the presence of compound IV at an IC10 concentration were measured after 48 hours of incubation. After the incubations, […] of 0.1% AlamarBlue in 1×PBS was added to each well. The plates were then incubated for a final 24 h. The plates were read on a microplate reader with an ex/em of 485/528.

[6] = system: HT1080-luc fibrosarcoma cells; test: Inhibitory potency against HT1080-luc in vitro; format: cell-based; details: Homo sapiens, read-out: IC50±SEM
Experimental: The growth inhibitory potency of 2-pyrrolino-5-imino-13-deoxydoxorubicin IV, 5-imino-13-deoxydoxorubicin III, and doxorubicin I against several cancer cell lines was evaluated using the resazurin fluorescence assay. The growth inhibitory potency was measured as the inhibitory concentration of a compound required to inhibit cell growth by 50% (IC50). The cancer cells were seeded into 96-well plates (0.5-1×10^4 cells/well) with appropriate media, incubated with drug for 48 hours, and then treated with resazurin (final concentration, 0.01%), a non-fluorescent blue dye, for 24 hours. The fluorescence (Ex560 nm/Em590 nm) was recorded using a BioTek SynergyHT multiwell plate fluorimeter. Healthy cells metabolize resazurin to resorufin, a fluorescent pink dye. Thus, fluorescence is a proxy for cell viability and used to determine the effect of cytotoxic agents on cell cultures. […]
To assess in vivo drug activity against a primary tumor growth model of sarcoma, an experiment was conducted using commercially available human HT1080 fibrosarcoma cells engineered to express luciferase (HT1080-luc; PerkinElmer). The inhibitory potency of Compound III and Compound IV against HT1080-luc was measured in vitro by the methods described in Example 2. […]

advanced tumors = details: patients with advanced tumors; cited from earlier work
[7] = system: cancer cells versus normal cells; details: as reported; cited from earlier work
topoisomerase II = details: compared with doxorubicin; Stepankova et al.; cited from earlier work
[8] = literature; cited from earlier work
[9] = GCT histiocytoma, 48 hours drug, resazurin, mean ±SEM of 3 assays
[10] = MES-SA uterine fibrosarcoma (sensitive), mean ±SEM of 3 assays
[11] = MES-SA/MX2 uterine fibrosarcoma (resistant), mean ±SEM of 3 assays
[12] = HeLa cervical adenocarcinoma, 48 hours drug, resazurin, mean ±SEM of 3 assays
[13] = average of SW-872, RD, GCT, HeLa, T47D
[14] = T47D breast ductal carcinoma, 48 hours drug, resazurin, mean ±SEM of 3 assays
[15] = RD rhabdomyosarcoma, 48 hours drug, resazurin, mean ±SEM of 3 assays
[16] = SW872, SW-872 liposarcoma, 48 hours drug, resazurin, mean ±SEM of 3 assays
[17] = HADF normal human adult dermal fibroblasts, resazurin
[18] = 2.4 mg/kg intraperitoneal three times per week

Row | Structure (SMILES) | IC50 (GCT histiocytoma cells; [9]) | IC50 (MES-SA cells; [10]) | IC50 (MES-SA/MX2 cells; [11]) | potency in the resistant fibrosarcoma strain compared to the sensitive strain (times less potent) (MES-SA/MX2 cells) | IC50 [1, 12] | times more potent against cancer cells than a normal non-cancer cell line, on average (human cancer cell lines) | IC50 (human cancer cell lines; [13]) | IC50 [2, 14] | IC50 [3, 15] | IC50 (SW-872 liposarcoma cells; [16]) | IC50 [4, 17] | Averge tumor weight (HT1080-luc tumors; [18]) | tumor weight reduced (HT1080-luc tumors) | tumor progression by in vivo bioluminescent imaging (HT1080-luc tumors) | IC10 ([5]; compound alone, HT1080) | also measured
1 | COc1cccc2c1C(=O)c1c(O)c3c(c(O)c1C2=O)C[C@@](O)(C(=O)CO)C[C@@H]3O[C@H]1C[C@H](N)[C@H](O)[C@H](C)O1 [Compound I, doxorubicin] | 0.279 ± 0.036 µM | 0.55 ± 0.08 µM | 7.8 ± 1.8 µM | 14 times | 0.605 ± 0.095 µM | 2 times | 9.06 µM | 10.3 ± 7.8 µM | 0.43 ± 0.15 µM | 33.7 ± 7.5 µM | 18.9 µM | – | – | – | – | –
2 | COc1cccc2c1C(=N)c1c(O)c3c(c(O)c1C2=O)C[C@@](O)(CCO)C[C@@H]3OC1CC(N)C(O)C(C)O1 (stereo partly drawn) [Compound III, 5-imino-13-deoxydoxorubicin] | 3.37 ± 0.35 µM | 10.5 ± 1 µM | 90 µM | – | 9.82 ± 0.93 µM | 5.8 times | 10.1 µM | 18 µM | 11.9 ± 3.99 µM | 7.38 ± 0.45 µM | 58.9 µM | 1.40 g | 36% | not significantly reduced | 5.34 µM | times more potent in the presence of a nontherapeutic amount (IC10) of the other compound [5]: 35 times; IC50 ([5]; Homo sapiens, HT-1080, 48 h, HT1080, read-out: IC50 of compound III in the presence of an IC10 of compound IV): 1.78 µM; IC50 ([5]; Homo sapiens, HT-1080, 48 h, compound alone, HT1080, read-out: IC50): 63.4 µM; IC50 ([5]; compound alone, HT1080, read-out: IC50): 63.7 µM; IC50 ([6]; HT1080-luc in vitro, methods of Example 2): 10 ± 6.1 µM; anticancer activity in Phase I clinical trial (advanced tumors): anticancer activity in a variety of carcinomas, sarcomas, and bladder cancer; tolerability in Phase I clinical trial (advanced tumors): well tolerated with relatively mild toxicity for an anthracycline
3 | COc1cccc2c1C(=N)c1c(O)c3c(c(O)c1C2=O)C[C@@](O)(CCO)C[C@@H]3OC1CC(N2C=CCC2)C(O)C(C)O1 (stereo partly drawn) [Compound IV, 2-pyrrolino-5-imino-13-deoxydoxorubicin] | – | – | – | about equal in potency | – | 81 times | – | – | – | – | – | 1.03* g | 53% | reduced significantly statistically | 0.84 µM | IC50 (GCT histiocytoma cells; 48 h): 0.175 ± 0.015 µM; tolerability in mice (HT1080-luc tumors; [18]): well tolerated by the mice with no deaths and no overt signs of toxicity; IC50 (MES-SA cells; MES-SA): 0.76 ± 0.16 µM; IC50 (MES-SA/MX2 cells; MES-SA): 0.66 ± 0.003 µM; times more potent than compound I in an anthracycline resistant cell line (MES-SA/MX2 cells; MES-SA/MX2): 12 times; times more potent in the presence of a nontherapeutic amount (IC10) of the other compound ([5]; HT1080, IC50 alone / IC50 in combination): 12 times; IC50 ([5]; Homo sapiens, HT-1080, 48 h, compound alone, HT1080): 12.5 µM; IC50 ([5]; Homo sapiens, HT-1080, 48 h, read-out: IC50 of compound IV in the presence of an IC10 of compound III, HT1080): 1 µM; IC50 ([5]; read-out: IC50 of compound IV in the presence of an IC10 of compound III, HT1080): 1.01 µM; IC50 ([1]; HeLa, 48 h): 0.467 ± 0.104 µM; IC50 (human cancer cell lines): 0.49 µM; times more potent than compound I for inhibiting cell growth of cancer cells, on average (human cancer cell lines; ratio of average IC50 values): 18 times; times more potent than compound III for inhibiting cell growth of cancer cells, on average (human cancer cell lines; ratio of average IC50 values): 20 times; IC50 [6]: 3.51 ± 1.79 µM; IC50 ([2]; T47D, 48 h): 0.817 ± 0.561 µM; IC50 ([3]; 48 h): 0.44 ± 0.13 µM; IC50 (SW-872 liposarcoma cells; SW872, 48 h): 0.57 ± 0.23 µM; cytotoxicity against HADF (normal) cells relative to doxorubicin I ([4]; 39.75/18.9): half as cytotoxic; IC50 ([4]; Homo sapiens): 39.8 µM
4 | COc1cccc2c1C(=O)c1c(O)c3c(c(O)c1C2=O)C[C@@](O)(C(=O)CO)C[C@@H]3OC1CC(N2C=CCC2)C(O)C(C)O1 (stereo partly drawn) [compound II, 3′-deamino-3′-(2″-pyrroline-1″-yl)doxorubicin] | – | – | – | – | – | – | – | – | – | – | – | – | – | – | – | selectivity for cancer cells versus normal cells [7]: little or no selectivity; ability of DNA modifications to inhibit catalytic activity of topoisomerase II (topoisomerase II): does not differ significantly from that of doxorubicin; toxicity relative to doses required for an anticancer effect [8]: toxic or lethal at or below doses that are required for an anticancer effect
